Results from US9139568B2 (Merck Patent GmbH, priority 2011, dated 2015).

Tests used:
AKT = AKT (Homo sapiens (Human), UniProt P31749); test: AKT Enyzme Assay; type: biochemical; conditions: His-AKT (Full Length), 160 uM ATP, mobility shift (Caliper)
Procedure: A TTP Mosquito liquid handling instrument is used to place 125 nl of the appropriate concentration of inhibitor in 100% DMSO (for a dose response curve calculation) into each well of a 384-well plate.
The reaction is incubated for 90 min at 25 C, and then stopped by the addition of 70 μl of Stop buffer (100 mM HEPES pH 7.5, 0.015% Brij-35, 10 mM EDTA (Sigma, E7889)).
The plate is read on a Caliper LC 3000 in an Off-Chip mobility shift assay format, using the following parameters for a 12-sipper chip: screening pressure −2.3 psi, upstream voltage −500, and downstream voltage −3000. These conditions cause unphosphorylated substrate and phosphorylated product peptide to resolve as separate peaks allowing direct measurement of percentage of conversion of substrate to product. The percent conversion can be plotted against concentration of inhibitor to produce a sigmoidal dose response curve, from which an IC50 can be calculated.

P70S6K = P70S6K (Homo sapiens (Human), UniProt P23443, T412E); test: P70S6K Enzyme Assay; type: biochemical; conditions: P70S6K T412E mutant, 24 μM ATP, mobility shift (Caliper)
Summary of the method: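 Read-out is the substrate/phosphopeptide ratio from mobility-shift electrophoresis on a LabChip 3000.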

Chain of AKT (P31749 whole entry): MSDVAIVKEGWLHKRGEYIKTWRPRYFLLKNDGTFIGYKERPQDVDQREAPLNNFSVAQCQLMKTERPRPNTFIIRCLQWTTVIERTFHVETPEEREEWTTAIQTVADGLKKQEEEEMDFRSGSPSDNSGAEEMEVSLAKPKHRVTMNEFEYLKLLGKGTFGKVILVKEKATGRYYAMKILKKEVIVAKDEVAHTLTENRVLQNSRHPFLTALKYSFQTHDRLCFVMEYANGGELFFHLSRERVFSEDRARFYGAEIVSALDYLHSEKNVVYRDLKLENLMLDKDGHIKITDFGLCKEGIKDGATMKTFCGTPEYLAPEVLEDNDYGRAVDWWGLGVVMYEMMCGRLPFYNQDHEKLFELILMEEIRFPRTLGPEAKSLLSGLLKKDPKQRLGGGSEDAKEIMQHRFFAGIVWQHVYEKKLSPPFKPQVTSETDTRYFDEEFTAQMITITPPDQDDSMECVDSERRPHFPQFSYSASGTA
Chain of P70S6K (P23443 1-421 T412E): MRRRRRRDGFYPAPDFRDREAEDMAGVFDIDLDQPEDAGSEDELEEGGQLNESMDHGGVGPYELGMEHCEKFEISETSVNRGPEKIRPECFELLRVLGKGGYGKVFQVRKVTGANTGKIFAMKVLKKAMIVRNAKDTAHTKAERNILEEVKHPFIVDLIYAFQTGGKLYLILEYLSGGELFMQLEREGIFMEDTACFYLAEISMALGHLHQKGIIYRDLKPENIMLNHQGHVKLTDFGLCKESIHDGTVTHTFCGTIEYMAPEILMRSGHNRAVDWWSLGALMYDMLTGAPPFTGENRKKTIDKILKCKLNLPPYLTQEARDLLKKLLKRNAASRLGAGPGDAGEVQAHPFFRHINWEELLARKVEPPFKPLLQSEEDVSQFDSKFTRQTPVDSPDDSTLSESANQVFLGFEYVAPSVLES

| IC50 (AKT) | IC50 (P70S6K) | SMILES |
| --- | --- | --- |
| > 100 µM | 2300 nM | NC(=O)c1ccc(N2CCN(c3ccc(F)cc3)CC2)c2cncnc12 [Example 108, 5-[4-(4-fluorophenyl)-piperazin-1-yl]-quinazoline-8-carboxylic acid amide] |
| 23 µM | 11000 nM | NC(=O)c1ccc(N2CCN(c3cccc(C(F)(F)F)c3)CC2)c2cncnc12 [Example 109, 5-[4-(3-trifluoromethylphenyl)-piperazin-1-yl]-quinazoline-8-carboxylic acid amide] |
| > 100 µM | > 100000 nM | Cc1ccc(Cl)cc1N1CCN(c2ccc(C(N)=O)c3ncncc23)CC1 [Example 111, 5-[4-(5-chloro-2-methylphenyl)-piperazin-1-yl]-quinazoline-8-carboxylic acid amide] |

Further lines, the compound ahead of its results:

| SMILES | IC50 (AKT) | IC50 (P70S6K) |
| --- | --- | --- |
| NC(=O)c1ccc(NCCc2ccc(F)c(F)c2)c2cncnc12 [Example 101, 5-[2-(3,4-difluorophenyl)ethylamino]quinazoline-8-carboxamide] | 41 µM | 360 nM |
| NC(=O)c1ccc(NCCCCc2ccccc2)c2cncnc12 [Example 102, 5-(4-phenylbutylamino)quinazoline-8-carboxamide] | > 100 µM | 87 nM |
| CN(CCc1ccccc1)c1ccc(C(N)=O)c2ncncc12 [Example 103, 5-[methyl(phenethyl)amino]quinazoline-8-carboxamide] | 14 µM | 220 nM |
| NC(=O)c1ccc(N(CCc2ccccc2)[C@@H]2CCCNC2)c2cncnc12 [Example 105, 5-[phenethyl-[(3R)-3-piperidyl]amino]quinazoline-8-carboxamide] | > 100 µM | 11000 nM |
